Experimental findings from a melting point compilation (Tetko et al.; mined from patent text by program, amines drawn as free bases though some values may be those of a salt) are described below.

A value given as a limit tells only on which side of the number the result lay.

By melting point is commonly meant the temperature of the solid-liquid transition. Take `CCCCc1nc2c(N)nc3cccnc3c2n1CCOc1ccccc1`: the melting point worked out at 159 °C.
Next, `N#CCC1CC(=O)N(c2ccc(Cl)cc2)C1` (stereo not given): 92 to 94 °C; `O=C(O)C1c2ccccc2COc2ccc(Br)cc21` (stereo not given): 166 to 167 °C; `CCCCc1nc2c(N)nc3cccnc3c2s1`: 136 to 138 °C.
With `Nc1nc(OCC2CC2)c2ncn(C3CC(F)C(CO)O3)c2n1` (stereo not given), the melting point is 80 to 81 °C.
In turn, `COc1ccc(CNc2nc(N)c(C(=O)c3cc(C)sc3C)s2)cc1` gave a melting point of 175 °C.
As to `COC(=O)c1ccc2sc(Cl)nc2c1C`, the melting point worked out at 112 °C.
Next, `CCN(CC)C(=CC(=O)OC)n1c(=O)n2nc(C(=O)OC)c(N(CC)CC)c2c2ccccc21`: 178 °C; `N#Cc1c[nH]cc1-c1ccc(F)c(Cl)c1F`: 218 to 219 °C.
`CN1C(=O)Cn2c(nnc2C(F)(F)F)-c2cc(Cl)ccc21` showed a melting point of 186 to 187 °C.
The compound `BrC1COCOCC1Br` (stereo not given) yielded a melting point of 37 °C.
Compound `CCCc1c(OCCCCCC(=O)c2cc(O)c(O)c(C(C)C)c2)ccc(C(=O)O)c1O` had a melting point of 169 to 171 °C.
`CC(C)c1ccc2c(c1)c(Sc1ccccc1)c(CCC(=O)O)n2Cc1ccc(Cl)cc1` showed a melting point of 149 to 150 °C.
Next, `O=C(CCc1cccc2[nH]ccc12)c1ccccc1OCCN1CCCCC1`: 78 °C; `CCCc1nnc(-c2ccc(OC)cc2)s1`: 54 °C.
Take `COC(=O)Nc1nc(C)c(-c2nc3ccccc3c(=O)n2-c2cccc(C)c2)s1`: the melting point was in the range of 232 to 233 °C.
For the compound `CN(C)c1ccc(-c2cn[nH]c2N)cc1`, the melting point lay within 173 to 176 °C.
In turn, `Cc1oc(C2CC=CCC2)nc1CC(=O)O` (stereo not given) showed a melting point of 86 to 87 °C.
Compound `O=S(=O)(c1ccccc1)n1cc(CCOC2OC(CO)C(O)CC2O)c2ccccc21` (stereo not given) showed a melting point of 55 to 57 °C.
Regarding `CCCCCOC(=O)Oc1ccc(-c2ccc(C#N)cc2)cc1`, the melting point lay within 50.1 to 51 °C.
The compound `CNC(=S)NS(=O)(=O)c1cc(CCNC(=O)c2cc(Cl)ccc2OC)ccc1-c1ccco1` returned a melting point of 145 to 146 °C.
In turn, `Cc1oc(-c2ccccc2)nc1Cc1cc2cc(C=CC=C3OC(=O)NC3=O)ccc2o1` returned a melting point of 237 to 239 °C.
As for `O=C(CCCCCNC(=O)CCc1ccco1)NO`, the melting point lay in the range of 127 to 128 °C.
Consider `O=C1Cc2cccc(Sc3ccccc3Cl)c2N1`, for which the melting point lay within 178 to 180 °C.
Take `O=C(Cl)c1cc(Cl)cc2c1OCCO2`: the melting point was 140 °C.
In turn, `Cn1c(CN2CC=C(/C=C/c3ccccc3)CC2)nc2ccccc21` gave a melting point of 188 to 190 °C.
Next, `O=[N+]([O-])c1cc2c(cc1O)CCCC2`: 88 to 89 °C; `O=C(Nc1cc(Cl)cc(Cl)c1)C1=C(O)N2CCCN=C2S1`: 270 °C.
`COc1ccc(C(F)(F)F)cc1NC(=N)Nc1cccc(C(F)(F)F)c1` registered a melting point of 45 to 47 °C.
For the compound `COc1ccc(C2Sc3ccccc3NC(=O)C2OC(C)=O)cc1` (stereo not given), the melting point lay in the range of 193 to 195 °C.
Next, `COc1cccnc1OCC(O)CO` (stereo not given): 62 to 65 °C; `O=C(O)CC1CCCc2c1n(Cc1cccc(Cl)c1)c1c(F)cc(F)cc21` (stereo not given): 188 to 189 °C; `CC1(C)O[C@@H]2[C@@H](O1)[C@H](C(=O)O)O[C@H]2n1cnc2c(N)nc(I)nc21`: 187 to 190 °C.
In the case of `O=C(Oc1ccccc1)n1c(=O)c(F)cn(C2CC(OCc3ccccc3)C(CO)O2)c1=O` (stereo not given), the melting point lay in the range of 110 to 112 °C.
As for `O=c1cc(-c2ccccc2)c2ccc(COc3cc(F)cc(-c4ccccc4)c3)cc2o1`, the melting point is 129 to 131 °C.
Turning to `CN(C)C=Cc1ncc([N+](=O)[O-])n1CCN1CCOCC1`, the melting point was 105 to 106 °C.
The compound `Cc1c(OCCSCc2ccco2)ccnc1CNc1ncncc1Cl` registered a melting point of 129 to 130 °C.
Compound `Brc1cccc(C#Cc2ccncc2)c1` showed a melting point of 140 to 142 °C.
Next, `CC(=O)N(c1ncc(C(F)(F)F)cc1Cl)c1c([N+](=O)[O-])cc(C(F)(F)F)c(Cl)c1[N+](=O)[O-]`: 75 to 77 °C; `O=C(CCl)c1ccc(-c2ccccc2Cl)cc1`: 47 °C; `COCc1c(Cl)nnc(Cl)c1OC`: 28 to 32 °C.
Next, `COc1nc2cc(Cl)c(Cl)c(NS(=O)(=O)c3ccccc3)c2nc1OC`: 292 to 293 °C; `O=C(O)c1ccccc1Oc1cccc(F)c1`: 122 °C.
In turn, `CCCCCC1C=CC(c2ccc(OC)cc2)=CC1` (stereo not given) had a melting point of 55 °C.
`CNC(=O)c1cccc(NC(=O)Cc2ccccc2Cl)c1` registered a melting point of 211 to 212 °C.
`CCCCSCC(=O)N(Cc1cccnc1)C(C)(C)C` showed a melting point of 55 to 56 °C.
For the compound `COc1ccc(-c2cc(C)cn2-c2ccc(S(N)(=O)=O)cc2)cc1Cl`, the melting point lay in the range of 160 to 163 °C.
On to `CC(C)c1ccc(S(=O)(=O)Nc2ncc(C(F)(F)F)cc2I)cc1`, for which the melting point came out at 124 °C.
For the compound `COC1CCC2(C)C(CCC3C2CCC2(C)C(C(C)=O)CCC32)C1` (stereo not given), the melting point lay within 125 to 126 °C.
The compound `CCCCCCC(CCC(=O)O)CC(=O)O` (stereo not given) yielded a melting point of 70 to 71 °C.
`O=CNNC(=S)Nc1ccccc1F` yielded a melting point of 148 to 149 °C.
In turn, `Cc1nc(-c2ccc([C@H]3CN(c4nc(-c5ccncn5)cc(=O)n4C)CCO3)cc2)no1` displayed a melting point of 191 °C.
For `CN(CCc1ccccc1)CCc1ccc(Nc2ncc3c(n2)-c2ccccc2C(c2cccc(Br)c2)C3)cc1` (stereo not given), the melting point is 80 to 82 °C.
Next, `O=S(=O)(NCCCCCCCCn1ccnc1)c1ccc(Cl)cc1`: 54 to 56 °C; `CCCC(CCC)(CC(=O)Nc1cccc(OCc2ccc3ccc(F)cc3n2)c1)C(=O)O`: 155 to 156 °C.
Next, `Cc1cc(Oc2ccc([N+](=O)[O-])cc2)n[nH]1`: 124 to 125 °C; `CC(=O)Nc1cccc(C(=O)CN2C=CSC2NC(C)=O)c1` (stereo not given): 224 to 226 °C.
Regarding `Cc1ccc(C2(O)CCN(CCCN3c4cccc5cccc(c45)S3(=O)=O)CC2)cc1`, the melting point is 218 °C.
Compound `O=C(Nc1ccc(Oc2ccnc(N3CCCCC3)n2)c2ccccc12)c1cc(F)cc(N2CCOCC2)c1` came in with a melting point of 190 to 191 °C.
In turn, `O=C(CCCCCl)c1cc2c3c(c1)CC(=O)N3CCC2` had a melting point of 89 to 90 °C.
`CN1C2C=C(c3c[nH]c(-c4ccc(F)cc4)c3-c3ccncc3)CC1CC2` (stereo not given) had a melting point of 243 to 245 °C.
`CC1(C)CN(c2ccncc2)c2ccc(S(=O)(=O)c3ccccc3)cc2O1`: the melting point was in the range of 113 to 120 °C.
To `CCCCN(CCCC)C(=O)N1CCc2ccc(S(=O)(=O)NC(=O)NC3CCCCC3)cc2CC1` belongs 118 to 120 °C; to `CCOC(=O)C(CC)(Cc1ccc(OCCN2CCCCC2)cc1)S(=O)(=O)c1ccc(OC)cc1` (stereo not given), 75 °C.
In turn, `O=C(O)C1(c2ccsc2)CC1` came in with a melting point of 132 to 133 °C.
`O=c1[nH]c2ncc(-c3ccc(-c4nc5ccccc5[nH]4)cc3)nc2n1CC1CCOCC1` gave a melting point of over 300 °C.
With `O=C1OC(c2ccc(Cl)cc2)c2ccccc21` (stereo not given), the melting point came out at 124 °C.
To `CCOc1nc(NCc2ccco2)nc(Nc2ccc3[nH]c(C(F)(F)F)nc3c2)n1` belongs 188 to 190 °C; to `CN1CCN(C2(CNC=O)CCCCC2)CC1`, 97 to 98 °C.
In turn, `CS(=O)(=O)c1ccc(-c2sc(-c3cccs3)nc2-c2ccc(F)cc2)cc1` gave a melting point of 194 to 195 °C.
To `[N-]=[N+]=NCC1Cc2cc(Cl)cc(-c3ccsc3)c2O1` (stereo not given) belongs 50 to 52 °C; to `COc1ccc(/C=C/c2nc3c(c(=O)n(C)c(=O)n3C)n2C)c(OC)c1`, 242 °C; to `COc1ccc(C(=O)Nc2cccc3cnccc23)cc1OC`, 193 to 194 °C.
Next, `C=CCOC(=O)Nc1ccc(C2=NNC(=O)CC2C)cc1` (stereo not given): 206 to 207 °C; `CC(=O)n1cc(C#N)c(-c2ccccc2C(F)(F)F)c1`: 67 to 69 °C.
To `COc1cc(CC(COC(C)=O)NC(=O)c2ccccc2)cc2c1OC(C)(C)C2` (stereo not given) belongs 141 to 142 °C; to `O=C(OCC1c2ccccc2-c2ccccc21)N1CCC(n2nc(-c3ccccc3)[nH]c2=O)CC1`, 142 °C; to `C#Cc1ccc(C(=O)OCC)cn1`, 35 °C.
Turning to `CO[C@H]1O[C@@H](C)[C@@H]2[C@H](/C=C/[C@H]3CCC[C@H](C)N3C(=O)OC(C)(C)C)[C@H]3CCCC[C@@H]3C[C@H]12`, the melting point was 90.5 to 92.5 °C.
Next, `CCS(=O)(=O)CCC(=O)NNC(=O)N1Cc2cc(Cl)ccc2Oc2ccccc21`: 184 to 185 °C.
Take `O=C(Nc1ccc(Cl)cn1)c1cc(Cl)ccc1NCC1CCN(C2CCOCC2)CC1`: the melting point was 192 to 194 °C.
To `CC1(C)C(=O)N(c2ccc(C#N)c(C(F)(F)F)c2)C(=O)N1CCF` belongs 10 °C.
Consider `COC(=O)NC1=NC(c2ccc3ccccc3c2)CN1` (stereo not given), for which the melting point is 227 to 228 °C.
As for `O=S(=O)(Cl)c1ccc(F)c2nonc12`, the melting point lay in the range of 64 to 66 °C.
In turn, `CC(C)(O)CONC(=O)c1ccc(F)c(F)c1Nc1ccc(I)cc1Cl` came in with a melting point of 140 to 153 °C.
On to `CC(=O)c1cccc(NC(=O)NC2N=C(C(C)C)c3ccccc3N(CC(=O)N3CC4CCC(CC4)C3)C2=O)c1` (stereo not given), for which the melting point was in the range of 138 to 140 °C.
`CC1=C(C)C(=O)C(CCCCCC2=C(C)C(=O)C(C)=C(C)C2=O)=C(C)C1=O`: the melting point was determined as 138 °C.
To `CCCOc1ccc2c(c1)C(c1ccc(OC)cc1OCc1ccccc1)=C(C(=O)OC)[C@H]2c1ccc2c(c1)OCO2` belongs 114 to 117 °C.
`CCOc1nn(Cc2ccc(OCc3ccc4ccccc4n3)cc2)cc1CCC(=O)O` showed a melting point of 140 to 141 °C.
In turn, `O=C(Nc1ccccn1)c1nnc2ccccc2c1O` yielded a melting point of 341 to 343 °C.
